One data set has as its system L1210 leukemia cells. The data set is described as follows: Survival of mice transplanted with L1210 leukemia cells. It is filed as in vivo, DBA2 mice. The conditions noted are these: single agent: AraC 1000 mg/kg IP Days 2, 5, 8, or DNase II 15 or 45 mg/kg/day IP; Figure 4. Here is the method:
Treatment with DNase and AraC was initiated on Day 1 of experiment. Cytosine arabinoside (AraC; Cytosar; Pfizer) was injected IP at a dose of 1000 mg/kg on Days 2, 5 and 8. The injected doses were considered adequate for the model and injection route based on prior experiments (13-14). DNase II (Wornington) was injected IP at doses of 15 mg/kg/day and 45 mg/kg/day on Days 1, 3, 5, 8, 10, 12, 15, 17, and 19.
Animals were randomized into 6 experimental groups of 6 mice per group as follows: • 1. Group I: negative control (no treatment); • 2. Group II: positive control (animals treated with AraC); • 3. Group III: animals treated with AraC and 15 mg/kg DNase; • 4. Group IV: animals treated with AraC and 45 mg/kg DNase; • 5. Group V: animals treated with 15 mg/kg DNase, no AraC; • 6. Group VI: animals treated with 45 mg/kg DNase, no AraC.

For data set [1] the following is noted: for Body weight of surviving rats: Doxorubicin 3.75 mg/kg plus DNase I 15 mg/kg/day IP or placebo; for Number of dead/out of total in group: monitored 2 weeks. From the text:
Group I: control group (no Doxorubicin, no DNase); • 2.
Animals were monitored during 2 weeks from the beginning of experiment for survival and weight.

For data set [2] the following is noted: surviving rats, Day 14; Doxorubicin 3.75 mg/kg plus DNase I 15 mg/kg/day IP or placebo.
Method: 42 Wistar male rats (180-200 g) were used in this experiment (obtained from Stolbovaya nursery of Russian Academy of Medical Sciences). Animals were kept under standard conditions with free access to food and drinking water. Animals were randomized into 7 groups (6 animals in each group) as follows: • 1. Group I: control group (no Doxorubicin, no DNase); • 2. Group II: animals treated by daily intravenous (IV) injections of Doxorubicin (LENS) at 3.75 mg/kg/day dose for 5 days plus daily intraperitoneal (IP) injections of human recombinant DNase I (Pharmsynthez OJSC) at 15 mg/kg/day dose (30000 KU/kg/day); Doxorubicin and DNase I injections were administered at the same time; • 3. Group III: animals treated by daily IV injections of Doxorubicin (LENS) at 3.75 mg/kg/day dose for 5 days plus daily IP injections of placebo (water for injection [WFI]); • 4. Group IV: animals treated by daily IV injections of Doxorubicin (LENS) at 7.5 mg/kg/day dose for 5 days plus daily IP injections of human recombinant DNase I (Pharmsynthez OJSC) at 15 mg/kg/day dose (30000 KU/kg/day); Doxorubicin and DNase I injections were administered at the same time; • 5. Group V: animals treated by daily IV injections of Doxorubicin (LENS) at 7.5 mg/kg/day dose for 5 days plus daily IP injections of placebo (WFI); • 6. Group VI: animals treated by daily IV injections of Doxorubicin (LENS) at 10.0 mg/kg/day dose for 5 days plus daily IP injections of human recombinant DNase I (Pharmsynthez OJSC) at 15 mg/kg/day dose (30000 KU/kg/day); Doxorubicin and DNase I injections were administered at the same time; • 7. Group VII: animals treated by daily IV injections of Doxorubicin (LENS) at 10.0 mg/kg/day dose for 5 days plus daily IP injections of placebo (WFI).
The conditions of data set [3]: Etoposide 200 mg/kg + 5-FU 400 mg/kg per os, treatment 50 mg/kg IV. Here is the method:
On Day 1, Etoposide (LANCE) 200 mg/kg and 5-fluorouracil (5-FU; EBEWE) 400 mg/kg were given orally via feeding needle in 500 pl of a 9% glucose solution. Animals were divided into 4 groups of 16 rats each. […] Group I: IV placebo (WFI); • 2. Group II: human recombinant DNase I (Pharmsynthez OJSC) at 1.5 mg/kg (3000 KU/kg) dose IV; • 3. Group III: human recombinant DNase I (Pharmsynthez OJSC) at 50 mg/kg (100000 KU/kg) dose IV; • 4. Group IV: cimetidine solution (Gedeon Richter) at 50 mg/kg dose IV.
36 hours later, all animals were euthanized and their stomachs were removed and analyzed for the presence of erosions and hemorrhages using an automated video analyzer system.

Another data set deals with Thymocytes. Put plainly: Con A-induced lymphocyte blast transformation of thymocytes from paclitaxel-treated mice (3H thymidine incorporation). It counts as in vivo, (CBAxC57Bl6) F1 mice. The note with it: thymocytes collected 24 hours after paclitaxel 20 mg/kg IV, with or without DNase gamma 2 mg/kg IP 1 hour later, scintillation counts. Here is the method:
10 male 6-week-old (CBAxC57Bl6) F1 mice (obtained from Rappolovo animal house) were given a single 20 mg/kg dose of paclitaxel (Paclitaxel-Teva) IV. A group of 5 paclitaxel treated mice were injected IP 1 hour later with recombinant mouse DNase gamma (USCN Life Science Inc.) at 2 mg/kg dose IP. A group of 5 […] mice were injected IP at the same time with 1 ml of placebo (WFI) to serve as the control. All mice were killed 24 hours later by cervical dislocation. The thymuses from each group were collected and homogenized in a separator in RPMI 1640 media supplemented with 10% fetal calf serum. The suspension of thymocytes was filtered and sedimented in a centrifuge at 400xg for 2 minutes and then resuspended with the same media. Thymocytes were plated into 96 well plates (900,000 cells per well in 200 pl of RPMI 1640 supplemented with 10% fetal calf serum (FCS)) and incubated for 32 hours at 37°C, 100% humidity and 5% COz atmosphere. Each well was then supplemented with ^3H thymidine (UC/10pl/well) and Concanavalin A (ConA; 50pl; 1.25 pg/ml). After 24 hours of further incubation, thymocytes were harvested and dried. Labeled ^3H thymidine incorporation was measured using a Beckman scintillation counter.
Background: Uptake of a labelled nucleoside into DNA is a usual measure of proliferation.

Setting [4] is: Doxorubicin 3.75 mg/kg/day IV for 5 days plus DNase I 15 mg/kg/day IP or placebo (WFI).
Where [5] appears, read: Doxorubicin 7.5 mg/kg/day IV for 5 days plus DNase I 15 mg/kg/day IP or placebo (WFI).
Where [6] appears, read: Doxorubicin 10.0 mg/kg/day IV for 5 days plus DNase I 15 mg/kg/day IP or placebo (WFI).

Like-named read-outs stand apart in the source and are kept apart here.

Regarding `Nc1ccn([C@@H]2O[C@H](CO)[C@@H](O)[C@@H]2O)c(=O)n1` [AraC, cytosine arabinoside], in the data set with L1210 leukemia cells, the survival rates entry is on record as “better survival rates versus non-treated mice”.
As to `COc1cccc2c1C(=O)c1c(O)c3c(c(O)c1C2=O)C[C@@](O)(C(=O)CO)C[C@@H]3O[C@H]1C[C@H](N)[C@H](O)[C@H](C)O1` [Doxorubicin], the “Body weight of surviving rats” value in data set [1] (Baseline (before doxorubicin)) came to 164 ± 6 grams. For the same molecule, the “Body weight of surviving rats” value in data set [1] (Day 4) came to 143 ± 6 grams. Besides, the “Body weight of surviving rats” value in data set [1] (Day 7) was 151 ± 7 grams. Also, the “Body weight of surviving rats” value in data set [1] (Day 14) is 156 ± 6 grams. Moreover, in data set [1] (setting [4]), the “Median survival of deceased rats” value was determined as 12 ± 2.1 days and the “Number of dead/out of total in group” value is recorded as 3/6. In addition, in data set [1] (setting [5]), the “Median survival of deceased rats” value came to 8.2 ± 1.0 days and the “Number of dead/out of total in group” value is given as 5/6. Moreover, in data set [1] (setting [6]), the “Median survival of deceased rats” value was determined as 6.6 ± 0.9 days and the “Number of dead/out of total in group” value is given as 6/6. Besides, in data set [2], the Basophils was determined as 0%, the Eosinophils is given as 2.4±0.3%, the Glucose worked out at 6.1 ± 0.2 mmol/L and the Haemoglobin was 9.5±0.7 G%. For the same molecule, in data set [2], the Hematocrit was 30.5±2.2%, the K came out at 5.6 ± 0.3 mmol/L, the Lymphocytes is 82.3±2.2% and the Monocyte stood at 2.3±0.5%. Moreover, in data set [2], the Na is 144 ± 2 mmol/L, the Plasmatic cells stood at 1.3±0.5%, the Platelets is reported as 340±25 10^9/L and the Protein was found to be 54.7 ± 7.3 g/L. Further, in data set [2], the RBC sedimentation count is listed as 24.1±4.5 mm/h, the Segmented neutrophils is 11.6±1.3%, the Total cholesterol came to 1.10 ± 0.29 mmol/L and the Total lipids is 2.06 ± 0.27 g/L. In data set [2], the Urea was determined as 7.21 ± 0.3 mmol/L and the WBC is given as 4.9±0.2 10^9/L.
In the case of `CN/C(=N/CCSCc1nc[nH]c1C)NC#N` [Cimetidine, cimetidine], in data set [3], the “Median number of lesions” value was found to be 2.5±1.1 and the “Number of lesion free animals (percent)” value was determined as 62.5%. The “Total number of lesions per group” value in data set [3] (16 animals, 36 hours later) worked out at 40. In data set [3] (of 16 animals), the “Number of lesion free animals” value is 10.
As to `CC(=O)O[C@H]1C(=O)[C@@]2(C)[C@H]([C@H](OC(=O)c3ccccc3)[C@]3(O)C[C@H](OC(=O)[C@H](O)[C@@H](NC(=O)c4ccccc4)c4ccccc4)C(C)=C1C3(C)C)[C@]1(OC(C)=O)CO[C@@H]1C[C@@H]2O` [Paclitaxel, paclitaxel], the “Con A-induced ^3HT incorporation” value in the data set on Thymocytes (ConA) was determined as 1686±142 CPM. For the same molecule, in the data set on Thymocytes, the “Basal ^3HT incorporation” value came to 277±21 CPM.

The record behind these values is EP3878462B1 (priority 2015, dated 2017).
